Results on one compound are retold here after patent US20250375401A1, “PHARMACEUTICAL COMPOSITION CONTAINING DEMETHYLZEYLASTERAL FOR PREVENTION OR TREATMENT OF DISEASES CAUSED BY MUSCLE LOSS” (SEOUL NATIONAL UNIVERSITY R&DB FOUNDATION, priority 2022, published 2025).

The structures appear in SMILES notation.

The subject of test [1] is myoblast cell line C2C12. The test can be described thus: Myocyte differentiation in dexamethasone-induced cell model (total MHC immunofluorescence and DAPI staining). The following applies: C2C12 myotubes, 0.5 or 1 μM demethylzeylasteral with 100 μM dexamethasone. It counts as cell-based, mouse. As for the experimental part: dexamethasone-induced cell model, the following experiments were performed. Specifically, myoblast cell line C2C12 from mouse were seeded in 6 cm dishes and incubated for 72 hours. Then, the media were replaced to differentiation media to differentiate myoblasts into myotubes for 48 hours. After myotubes were formed, they were teated with 100 μM dexamethasone and 0.5, or 1 μM demethylzeylasteral for 72 hours while replacing the differentiation media every 24 hours. The differentiation media were suctioned off, and the dishes in which the cells were incubated were washed three times with PBS. Then, the cells were fixed with 4% formaldehyde, permeabilized with PBS containing 0.1% Triton-X 100 for 10 minutes, and blocked with PBS containing 3% bovine serum albumin for 1 hour. The cells were treated with total MHC antibodies, a biomarker for myocyte differentiation, followed by Alexa 488-conjugated secondary antibodies, and teated with DAPI for staining nuclei. The ratio of MHC+ nuclei to the total number of nuclei was calculated and plotted as a differentiation index, and the total number of nuclei stained with DAPI was also counted and plotted.

The test system of test [2] is myoblast cell line C2C12. In words: Western blot of total MHC and MuRF-1 in dexamethasone-induced cell model. It counts as cell-based, mouse. The following applies: C2C12 myotubes, 0.5 or 1 μM demethylzeylasteral with 100 μM dexamethasone, 48 hours, western blot (FIG. 5). How it is done:
Specifically, myoblast cell line C2C12 from mouse were seeded in 6 cm dishes and incubated for 72 hours.
For orientation: Immunoblotting shows a protein as a band on a membrane.

As for `C[C@@]1(C(=O)O)CC[C@]2(C)CC[C@]3(C)C4=CC(=O)c5c(cc(O)c(O)c5C=O)[C@]4(C)CC[C@@]3(C)[C@@H]2C1` [demethylzeylasteral, (2R,4aS,6aR,6aS,14aS,14bR)-9-formyl-10,11-dihydroxy-2,4a,6a,6a,14a-pentamethyl-8-oxo-1,3,4,5,6,13,14,14b-octahydropicene-2-carboxylic acid], in test [1] (72 hours (FIG. 3)), the “myocyte differentiation index (total number of MHC+ nuclei divided by total number of nuclei)” value is “significantly increased and restored”. Further, in test [1] (72 hours (FIG. 4)), the “number of nuclei (DAPI staining)” value is “significantly increased”. In addition, in test [2], the “expression of MuRF-1 (biomarker for muscle degradation)” value is “significantly reduced expression” and the “expression of total MHC (biomarker for myocyte differentiation in late stage)” value is reported as “significantly increased expression”.
